In ChEMBL document CHEMBL1201862, “PubChem BioAssay data set” (2004):
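Values below derive from 48-hour exposures of cells grown in 96-well plates, with endpoints linearly interpolated between the two concentrations bracketing the appropriate inhibition level. GI50 = concentration required for 50% inhibition of growth.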 Activity calls are given as the source filed them. Cut-off read from the data, not from the text of the source: active = GI50 up to about 1.1 µM and inactive = higher.

What was measured:
Assay in all cases: growth of human tumour cells (NCI), 48 h
LOX IMVI = test system: LOX IMVI
ACHN = test system: ACHN
UACC-62 = test system: UACC-62
KM12 = test system: KM12
COLO 205 = test system: COLO 205
SF-539 = test system: SF-539
SW-620 = test system: SW-620
NCI-H460 = test system: NCI-H460
NCI-H226 = test system: NCI-H226
NCI-H522 = test system: NCI-H522
HOP-62 = test system: HOP-62
HL-60 = test system: HL-60
CCRF-CEM = test system: CCRF-CEM
RPMI-8226 = test system: RPMI-8226
CAKI-1 = test system: CAKI-1
SR = test system: SR
RXF 393 = test system: RXF 393

Measured: GI50

COC(=O)C1=C(C)N(NC(N)=O)C2(N)N(NC(N)=O)C(C)=C(C(=O)OC)C12C#N (stereo not given)
inactive: LOX IMVI > 100 µM | ACHN > 100 µM | UACC-62 > 100 µM | KM12 > 100 µM | COLO 205 > 100 µM | SF-539 > 100 µM | SW-620 > 100 µM | NCI-H460 > 100 µM | NCI-H226 > 100 µM | NCI-H522 > 100 µM | HOP-62 > 100 µM | HL-60 > 100 µM | CCRF-CEM > 100 µM | RPMI-8226 > 100 µM | CAKI-1 > 100 µM

COc1ccc2c([nH]c3c(O)c(-c4c(C)cc5c([nH]c6c(CC=C(C)C)c(OC)ccc65)c4O)c(C)cc32)c1CC=C(C)C [BISMURRAYAFOLINE B]
inactive: LOX IMVI > 100 µM | ACHN > 100 µM | UACC-62 > 100 µM | KM12 > 100 µM | COLO 205 > 100 µM | SF-539 > 100 µM | SW-620 > 100 µM | SR > 100 µM | NCI-H460 > 100 µM | NCI-H522 > 100 µM | HOP-62 > 100 µM | HL-60 > 100 µM | CCRF-CEM > 100 µM | RXF 393 > 100 µM | RPMI-8226 > 100 µM | CAKI-1 > 100 µM

O=C1C2Cc3ccccc3CN2C(=O)N1CN1CCN(CN2C(=O)C3Cc4ccccc4CN3C2=O)CC1 (stereo not given)
inactive: LOX IMVI > 100 µM | ACHN > 100 µM | UACC-62 > 100 µM | KM12 > 100 µM | COLO 205 > 100 µM | SF-539 > 100 µM | SW-620 > 100 µM | NCI-H460 > 100 µM | NCI-H226 > 100 µM | NCI-H522 > 100 µM | HOP-62 > 100 µM | HL-60 > 100 µM | CCRF-CEM > 100 µM | RXF 393 > 100 µM | RPMI-8226 > 100 µM | CAKI-1 > 100 µM

Cc1ccc(NS(=O)(=O)c2cc(C(C)(C)C)ccc2OCCOCCOCCOc2ccc(C(C)(C)C)cc2S(=O)(=O)Nc2ccc(C)cc2)cc1
inactive: LOX IMVI > 100 µM | ACHN > 100 µM | UACC-62 > 100 µM | KM12 > 100 µM | COLO 205 > 100 µM | SF-539 > 100 µM | SW-620 > 100 µM | NCI-H460 > 100 µM | NCI-H226 > 100 µM | HOP-62 > 100 µM | HL-60 > 100 µM | CCRF-CEM > 100 µM | RXF 393 > 100 µM | CAKI-1 > 100 µM

C1CCN(C2OC3C(COC3N3CCCCC3)OC2OC2CCO[C@@H]2N2CCCCC2)CC1 (stereo not given in full)
inactive: LOX IMVI 75 µM | ACHN 25.9 µM | UACC-62 13.4 µM | KM12 78.5 µM | COLO 205 38.3 µM | SF-539 16.5 µM | SW-620 81.3 µM | NCI-H460 > 100 µM | NCI-H226 20 µM | NCI-H522 12.4 µM | HOP-62 36.2 µM | HL-60 8.47 µM | CCRF-CEM 5.11 µM | RXF 393 8.18 µM | RPMI-8226 17.9 µM | CAKI-1 30.1 µM

CC1CN(C(=O)CN2CCC(CCCCN(C)C)CC2)c2ccccc2NC1=O (stereo not given)
inactive: LOX IMVI > 100 µM | ACHN > 100 µM | UACC-62 > 100 µM | COLO 205 > 100 µM | SW-620 > 100 µM | SR > 100 µM | NCI-H460 > 100 µM | NCI-H226 > 100 µM | HOP-62 > 100 µM | HL-60 > 100 µM | CCRF-CEM > 100 µM | RPMI-8226 > 100 µM | CAKI-1 90.6 µM

COC(=O)C1=C(c2ccc(OC)c(OC)c2)OC(c2cc(OC)c(OC)c(OC)c2)C1 (stereo not given)
inactive: LOX IMVI 99.5 µM | ACHN 36.4 µM | KM12 33.1 µM | SF-539 30.2 µM | SW-620 41.6 µM | NCI-H460 > 100 µM | NCI-H226 50.8 µM | HOP-62 19.7 µM | CCRF-CEM > 100 µM | RXF 393 22.1 µM | RPMI-8226 > 100 µM | CAKI-1 60.3 µM

CC1=C(C(=O)Nc2ccc([N+](=O)[O-])cc2)C(c2cccc([N+](=O)[O-])c2)C(C(=O)Nc2ccc([N+](=O)[O-])cc2)=C(C)N1
inactive: LOX IMVI 11.1 µM | ACHN 20 µM | UACC-62 5.28 µM | KM12 12.1 µM | COLO 205 45.8 µM | SF-539 60.3 µM | SW-620 31.9 µM | NCI-H460 27.7 µM | NCI-H226 58.3 µM | NCI-H522 20.5 µM | HOP-62 64.3 µM | HL-60 16.4 µM | CCRF-CEM 12.6 µM | RXF 393 16.2 µM | RPMI-8226 7.78 µM

Nc1ncnc2c1ncn2CC(O)CO (stereo not given)
inactive: LOX IMVI > 100 µM | UACC-62 > 100 µM | KM12 > 100 µM | COLO 205 > 100 µM | SF-539 > 100 µM | SW-620 > 100 µM | NCI-H460 > 100 µM | NCI-H226 > 100 µM | NCI-H522 > 100 µM | HL-60 > 100 µM | CCRF-CEM > 100 µM | RXF 393 > 100 µM | RPMI-8226 > 100 µM | CAKI-1 > 100 µM

CON1C(=O)C2(CCCCC2)C(=O)C12C=CC(C)CC2 (stereo not given)
inactive: LOX IMVI > 100 µM | UACC-62 > 100 µM | KM12 > 100 µM | COLO 205 > 100 µM | SF-539 > 100 µM | SW-620 > 100 µM | NCI-H460 > 100 µM | NCI-H226 76.6 µM | NCI-H522 95.1 µM | HOP-62 > 100 µM | HL-60 49.5 µM | CCRF-CEM > 100 µM | RXF 393 30.7 µM | RPMI-8226 72.3 µM | CAKI-1 > 100 µM

COC12CC(O)=C(C(C)=O)C(=O)C1(C)c1c(OC(C)=O)c(C)c(O)c(C(C)=O)c1O2 (stereo not given)
inactive: LOX IMVI 10.2 µM | ACHN 12.3 µM | UACC-62 4.98 µM | KM12 12 µM | SF-539 21.6 µM | SW-620 22.7 µM | SR 18.5 µM | NCI-H460 13.2 µM | NCI-H226 13.8 µM | HOP-62 22.8 µM | HL-60 15.8 µM | CCRF-CEM 8.41 µM | RXF 393 14.7 µM | RPMI-8226 7.71 µM | CAKI-1 15.7 µM

CN(C)C(=C1C(Br)=C(Br)C(Br)=C1Br)N(C)C
inactive: LOX IMVI 21.5 µM | ACHN > 100 µM | UACC-62 > 100 µM | KM12 > 100 µM | COLO 205 > 100 µM | SF-539 > 100 µM | SW-620 83.8 µM | NCI-H460 > 100 µM | NCI-H522 17.5 µM | HOP-62 > 100 µM | HL-60 46.3 µM | CCRF-CEM 26.3 µM | RXF 393 > 100 µM | RPMI-8226 22.7 µM | CAKI-1 > 100 µM

C1=CC=C2NCCOCC/N=C3/C=CC=CC=C3NCCOCC/N=C\2C=C1
inactive: LOX IMVI 29 µM | ACHN > 100 µM | UACC-62 47.9 µM | KM12 66.2 µM | COLO 205 45 µM | SW-620 32.4 µM | NCI-H460 30.4 µM | NCI-H226 > 100 µM | NCI-H522 > 100 µM | HOP-62 > 100 µM | HL-60 22.4 µM | CCRF-CEM 40 µM | RPMI-8226 45.7 µM | CAKI-1 > 100 µM
